# Earlier results as cited in US20230346652A1, “Foaming Hand Sanitizer with High Alcohol Content” (Ele' Corporation, priority 2021, published 2023).
# Experiments:
# [1] = system: enveloped viruses
# [2] = system: certain non-enveloped viruses
structure (smiles),measurement,setting,value
CCO [ethanol],ethanol concentration effective within 30 seconds,[1],less than 75 % (by weight)
same,ethanol concentration necessary to kill within 30 seconds,[2],up to 95%
